Laboratory results published in paper PMC10401570, “Programmable Monodisperse Glyco-Multivalency Using Self-Assembled Coordination Cages as Scaffolds” (ACS Applied Materials & Interfaces, 2023).

Target: Jacalin (Artocarpus integer, UniProt P18670)
Test: competition turbidimetry: free galactose blocks lectin aggregation by galactose cage Co4Gal ([…] against Co8Gal)
Type: binding

Sequence of Jacalin (P18670 whole entry): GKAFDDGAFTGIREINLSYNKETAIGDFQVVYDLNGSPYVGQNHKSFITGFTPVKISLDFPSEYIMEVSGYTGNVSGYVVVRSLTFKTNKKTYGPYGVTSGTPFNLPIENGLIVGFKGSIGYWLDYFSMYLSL
Sequence of Jacalin (P18671 whole entry partner): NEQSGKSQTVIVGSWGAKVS

IC50: 30 mM
SMILES: OC[C@H]1OC(O)[C@H](O)[C@@H](O)[C@H]1O (stereo partly drawn) [D-galactose]
